Measurements: patent publication US20080241274A1 (ZIOPHARM Oncology, Inc., priority 2006, published 2008)
Like-named read-outs stand apart in the source and are kept apart here.

Columns and labels:
A549 NSCLC = experiment: Monolayer assay (DNA content by propidium iodide), single agents and indibulin combinations, A549; type: cell-based, human; conditions: for IC50: Homo sapiens
Experimental: (§1) The monolayer assay determines the in vitro antitumor activity of test compounds and their capacity to inhibit survival and proliferation of established tumor cell lines. These effects can be determined by establishing the number of viable cells based on measuring the DNA content using propidium iodide. […] Between 5,000 and 10,000 cells were seeded in 96 well plates on Day 0 and the compounds were added 1 day later and incubated for 4 days. The activity was assessed by their IC50 and IC70 values.
(§2) Growth IC50 and IC70 values (Table 2) were determined using XLfit software package, and used to set the concentration ranges and drug ratios for the synergy detection part of the study.
(§3) Chou-Talalay median effect method was used to quantitatively characterize drug-drug interaction [Chou T. C. Theoretical basis, experimental design, and computerized simulation of synergism and antagonism in drug combination studies. Pharmacol Rev. 2006 September; 58(3):621-81]. […] Mixtures of the drugs at multiples of their single agent IC50's were prepared, as well as serial dilutions of the mixture. Additionally, single agent dose response was determined for the same concentration ranges as used for combination study.
(§4) The coefficient of interaction (CI(IC50)) at IC50 and coefficient of interaction under optimal experimental concentrations (CI(e)) were determined using CalcuSyn software package (Table 3, tests were performed in quadruplicate, mean values reported). Commonly, experimental values of CI<0.8 are considered synergistic, 0.8<CI<1.2 additive.

[1] = tested on: MCF-7 ER-positive breast cancer; experiment: Monolayer assay (DNA content by propidium iodide), single agents and indibulin combinations, MCF-7; type: cell-based, human
Experimental: as §1, §2, §3, §4

SKOV3 (ovarian) = experiment: Monolayer assay (DNA content by propidium iodide), single agents and indibulin combinations, SKOV3; type: cell-based, human; conditions: Homo sapiens
Experimental: as §1, §2, §3, §4

PC3 (prostate) = experiment: Monolayer assay (DNA content by propidium iodide), single agents and indibulin combinations, PC3; type: cell-based, human; conditions: for Combination IC50: PC3, concentration of the named drug in the combination
Experimental: as §1, §2, §3, §4

[2] = tested on: biotin-labeled calf brain tubulin; experiment: Competition with 3H-colchicine for tubulin binding (SPA beads); set-up: species or system bovine; conditions: 200-fold molar excess of cold competitor; FIG. 8
Experimental: Where indicated, a 200-fold molar excess of cold competitor was added. Tubulin heterodimers were then precipitated with streptavidin-coated SPA beads and bound radioactivity was determined. “No tubulin” indicates non-specifically bound radioactivity measured in the absence of biotin-labeled tubulin.

[3] = tested on: purified calf brain tubulin; experiment: Tubulin polymerization, calf brain tubulin; type: biochemical, bovine; conditions: FIG. 9, read-out: IC50 of inhibition of tubulin polymerization
Description: (§5) Tubulin from neuronal tissue is post-translationally modified and the degree of modification increases during neuronal development. Calf brain neuronal tubulin and tubulin from other tissues differ in their post-translational modifications from that of adult bovine brain. […] Tubulin polymerization is given as % over DMSO control.

[4] = tested on: adult bovine brain tubulin; experiment: Tubulin polymerization, adult bovine brain tubulin; type: biochemical; conditions: bovine brain tubulin; at the highest dose tested
Description: as §5

[5] = tested on: axonal microtubules of rat pheochromocytoma (PC12) cells; experiment: Axonal microtubule immunostaining in NGF-differentiated PC12 cells; type: cell-based; conditions: PC12 neurites induced by NGF 5-6 days; 24 h treatment at 2×IC50 concentration
Description: The outgrowth of neurites of PCl2 was induced by NGF for 5-6 days. […] Microtubules within the neurites, were visualized by immunostaining with an antibody recognizing acetylated (axonal) tubulin, leaving the cell bodies unstained.

[6] = tested on: MCF7 breast cancer xenografts; experiment: MCF7 breast cancer xenograft; type: in vivo, Human; conditions: 38.3 mg/kg/d, 4×(3× week), at sacrifice of control group animals
Description: (§6) The significant differences in pharmacodynamics and safety profile of indibulin make it a strong candidate for development as an anti-cancer drug.

[7] = tested on: U87 glioblastoma xenografts; experiment: U87 glioblastoma xenograft in nu/nu mice; type: in vivo, Human
Description: 5×10^6 U87 glioblastoma cells were implanted subcutaneously in immunodeficient nu/nu mice. Treatment started when tumor weight was about 0.15 g (Day 0).
as §6

[8] = tested on: human prostate cancer xenograft (PC-3); experiment: PC-3 prostate cancer xenograft; type: in vivo; conditions: 180 mg/kg/d, d. 0, 7, 14, at sacrifice of control group animals
Description: as §6

[9] = tested on: human vulvar squamous cell carcinoma xenograft (A431); experiment: A431 vulvar squamous cell carcinoma xenograft; type: in vivo; conditions: 27.5 mg/kg/d, 3×(3× week), at sacrifice of control group animals
Description: as §6

[10] = tested on: human ovarian xenograft (SK-OV-3); experiment: SK-OV-3 ovarian xenograft; type: in vivo; conditions: SKOV-3; 100 mg/kg/d, d. 0, 7, 14; at sacrifice of control group animals
Description: as §6

papillary thyroid cancer = experiment: Phase I study, patient with papillary thyroid cancer; type: in vivo, human; conditions: 400 mg BID continuous treatment
Description: (§7) Treatment is ongoing. […] Treatment is ongoing.

[11] = tested on: ovarian cancer with brain metastases; experiment: Phase I study, patient with ovarian cancer with brain metastases; type: in vivo, human; conditions: 400 mg BID continuous treatment; after 22 days of treatment; person
Description: as §7

[12] = tested on: un-biotinylated calf brain tubulin; conditions: G. Bacher, Cancer Res. 61, 2001; cited from earlier work
[13] = A549, single agent (combination study)
[14] = MCF7, indibulin + 5-FU (5FU:indibulin 10.9:1), concentration of the named drug in the combination
[15] = MCF7, indibulin + paclitaxel (paclitaxel:indibulin 0.27:1), concentration of the named drug in the combination
[16] = MCF7, indibulin + tamoxifen (tamoxifen:indibulin 100:1), concentration of the named drug in the combination
[17] = MCF7, indibulin + vinorelbine (vinorelbine:indibulin 0.016:1), concentration of the named drug in the combination

Compound: O=C(Nc1ccncc1)C(=O)c1cn(Cc2ccc(Cl)cc2)c2ccccc12 [Indibulin, N-(pyridin-4-yl)-[1-(4-chlorobenzyl)-indol-3-yl]-glyoxylic acid amide]
- Single Agent IC40 (A549 NSCLC; [13]): 0.071 µg/mL
- Single Agent IC50 (A549 NSCLC; [13]): 0.054 µg/mL
- Single Agent IC60 (A549 NSCLC; [13]): 0.129 µg/mL
- Single Agent IC70 (A549 NSCLC; [13]): 0.095 µg/mL
- Combination IC70 (A549 NSCLC; A549, indibulin + carboplatin (carboplatin:indibulin 303:1), concentration of the named drug in the combination): 0.027 µg/mL
- Combination IC40 (A549 NSCLC; A549, indibulin + erlotinib (erlotinib:indibulin 208:1), concentration of the named drug in the combination): 0.021 µg/mL
- Combination IC60 (A549 NSCLC; A549, indibulin + etoposide, concentration of the named drug in the combination): 0.068 µg/mL
- IC50 (A549 NSCLC; A549, 96 h, A549, single agent, 4 days incubation, read-out: Growth IC50): 0.038 µg/mL
- IC50 (A549 NSCLC; A549, A549, single agent (combination study), read-out: Single Agent IC50): 0.092 µg/mL
- IC50 (A549 NSCLC; A549, A549, indibulin + carboplatin (carboplatin:indibulin 303:1), concentration of the named drug in the combination, read-out: Combination IC50): 0.011 µg/mL
- IC50 (A549 NSCLC; A549, A549, indibulin + erlotinib (erlotinib:indibulin 208:1), concentration of the named drug in the combination, read-out: Combination IC50): 0.03 µg/mL
- IC50 ([1]; Homo sapiens, MCF7, MCF7, single agent (combination study), read-out: Single Agent IC50): 0.013 µg/mL
- Single Agent IC84 ([1]; MCF7, single agent (combination study)): 53 ng/mL
- Combination IC50 [1, 14]: 0.005 µg/mL
- Combination IC60 [1, 14]: 0.0028 µg/mL
- Combination IC50 ([1]; MCF7, indibulin + doxorubicin, concentration of the named drug in the combination): 0.011 µg/mL
- Combination IC50 [1, 15]: 0.004 µg/mL
- Combination IC84 [1, 15]: 10 ng/mL
- Combination IC50 [1, 16]: 0.004 µg/mL
- Combination IC60 [1, 16]: 0.0064 µg/mL
- Combination IC50 [1, 17]: 0.008 µg/mL
- Combination IC60 [1, 17]: 0.006 µg/mL
- IC50 (SKOV3 (ovarian); SK-OV-3, SKOV3, single agent (combination study), read-out: Single Agent IC50): 0.415 µg/mL
- IC50 (SKOV3 (ovarian); SK-OV-3, SKOV3, indibulin + carboplatin, concentration of the named drug in the combination, read-out: Combination IC50): 0.029 µg/mL
- IC50 (SKOV3 (ovarian); SK-OV-3, SKOV3, indibulin + cisplatin, concentration of the named drug in the combination, read-out: Combination IC50): 0.022 µg/mL
- IC50 (SKOV3 (ovarian); SK-OV-3, SKOV3, indibulin + gemcitabine, concentration of the named drug in the combination, read-out: Combination IC50): 0.047 µg/mL
- IC50 (PC3 (prostate); Homo sapiens, PC3, single agent (combination study), read-out: Single Agent IC50): 0.034 µg/mL
- Combination IC50 (PC3 (prostate); indibulin + estramustine): 0.014 µg/mL
- Combination IC50 (PC3 (prostate); indibulin + prednisolone): 0.012 µg/mL
- Inhibition of 3H-colchicine binding [2]: about 40%
- IC50 [3]: ~250 nM
- Inhibition of tubulin polymerization [4]: 25%
- Effect on axonal microtubules (acetylated tubulin immunostaining) [5]: did not affect axonal microtubules
- Growth Inhibition (%) [6]: >100%
- Growth Inhibition (%) ([7]; U87, 27.5 mg/kg/d, 3×(3× week), at sacrifice of control group animals): 88.8%
- Growth of U87 glioblastoma xenografts (in words) ([7]; orally administered, s.c. tumors in nu/nu mice, FIG. 11): inhibits growth
- Growth Inhibition (%) [8]: 63%
- Growth Inhibition (%) [9]: 63%
- Growth Inhibition (%) [10]: 53%
- Decrease of thyroglobulin level from baseline (papillary thyroid cancer; after 15th day of dosing): 34%
- Decrease of tumor measurements (papillary thyroid cancer; at first assessment): 11%
- Disease status after treatment (papillary thyroid cancer; person): stable disease
- Reduction of CA125 level from baseline [11]: 11%
- Competition with 3H-colchicine binding [12]: does not compete
